One may read the IC50 as the concentration that gives 50% inhibition. The low end stands for inhibition by little substance, the high end for a need for much substance. What is called EC50 is the midpoint of the concentration-response curve.

The target of one test is T1, Wee1 kinase (Homo sapiens, UniProt P30291).
T1 construct: made in house; host or cells: Sf9 insect cells (recombinant baculovirus)
Nature of the test: Wee1 kinase-inhibitory effect (33P-ATP, Poly(Lys,Tyr) substrate, filter assay). The class given is biochemical. The settings on record: 10 μM ATP, 30° C., 30 minutes. The source says:
Pharmacological Test 1 (Wee1 Kinase-Inhibitory Effect)
(1) Purification of Wee1 Kinase:
A cDNA of Wee1 kinase with […] (GST) fused at the amino terminal thereof was inserted into a baculovirus expression vector to construct a recombinant baculovirus, with which cells of an insect cell line Sf9 were infected for high expression therein. The infected cells were recovered and solubilized, and then the GST-tagged Wee1 kinase protein was adsorbed by a glutathion column, and eluted from the column with glutathion, and the active fraction was desalted in a desalting column to give a purified enzyme.
(2) Determination of Wee1 Kinase Activity:
In determination of the Wee1 kinase activity, a synthetic peptide, Poly(Lys,Tyr) Hydrobromide (Lys:Tyr (4:1)) bought from Sigma was used as the substrate.
The amount of the reaction liquid was 21.1 μL; and the composition of the reaction buffer was 50 mM Tris-HCl buffer (pH 7.4)/10 mM magnesium chloride/1 mM dithiothreitol. The purified Wee1 kinase, 2.5 μg of the substrate peptide, 10 μM of non-labeled adenosine triphosphate (ATP) and 1 μCi of [γ-^33P]-labeled ATP (2500 Ci/mmol or more) were added to it, and reacted at 30° C. for 30 minutes. Next, 10 μL of 350 mM phosphate buffer was added to the reaction system to stop the reaction. The substrate peptide was adsorbed by a P81 paper filter 96-well plate, then washed a few times with 130 mM phosphate buffer, and its radioactivity was counted with a liquid scintillation counter. The [γ-^33P]-labeled ATP was bought from Amersham Bioscience.
To add the test compound to the reaction system, the compound was diluted with dimethylsulfoxide (DMSO) to prepare a series of dilutions. 1.1 μL of each dilution was added to the reaction system. As a control, 1.1 μL of DMSO was added to the reaction system.

Test [1] concerns Cdc2 (Cdk1) tyrosine 15-phosphorylation in NCI-H1299 cells. Nature of the test: Cdc2 (Cdk1) tyrosine 15-phosphorylation-inhibitory effect in camptothecin-treated NCI-H1299 cells (ELISA). The class given is cell-based. The settings on record: Homo sapiens; NCI-H1299, camptothecin 200 nM 16 hours, then test compound + nocodazole 8 hours; read-out: Cdc2-Y15 Phosphorylation-Inhibitory Effect (H1299, + camptothecin) (EC50). The text has this:
Pharmacological Test 2 (Method of Determining Drug Potency with Cells (Cdc2 (Cdk1) Tyrosine 15-Phosphorylation-Inhibitory Effect))
Fetal bovine serum (FBS) was obtained from Morgate; media RPMI1640 and DMEM were from Invitrogen; camptothecin was from Sigma; gemcitabine was from Nippon Eli Lilly; nocodazole and protease inhibitor cocktail were from Sigma; rabbit anti-Cdc2 antibody and mouse anti-Cdc2 antibody were from Santa Cruz Biotechnology; rabbit anti-tyrosine 15-phosphorylated Cdc2 antibody and horseradish peroxidase-labeled anti-mouse IgG antibody were from Cell Signaling Technology; sure blue reserve TMB peroxidase substrate was from Kirkegaard and Perry Laboratories.
Human non-small cell lung cancer cells (NCI-H1299) and human colon cancer cells (WiDr) were obtained from American Type Culture Collection (ATCC).
In the method of using NCI-H1299 cells, the cells were suspended in a medium of 10% FBS-added RPMI1640, and the cell suspension was applied to a 96-well Nunclondelta-processed plastic plate (bought from Nunc), in an amount of 2000 cells/100 μL/well, in which the cells were incubated overnight in 5% CO2-95% air at 37° C. Camptothecin was dissolved in dimethylsulfoxide (DMSO), and diluted with a medium of 10% FBS-added RPMI1640, and then this was applied to the plate on which the cells had been previously sowed, in an amount of 50 μL/well in such a manner that the final concentration of camptothecin could be 200 nM. Then, the cells were incubated for 16 hours at 37° C. in 5% CO2-95% air. The test compound was stepwise diluted with DMSO, then diluted with 4000 nM nocodazole-containing, 10% FBS-added RPMI1640, and applied to the plate on which the camptothecin-treated cells had been sowed, in an amount of 50 μL/well. The cells were incubated for 8 hours at 37° C. in 5% CO2-95% air, then the culture was removed, and a cytolytic buffer was added to the plate in an amount of 100 μL/well, shaken at 4° C. for 2 hours, then frozen at −80° C., and thawed to give a cell solution. Cdc2 and tyrosine 15-phosphorylated Cdc2 in the cell solution were determined through enzyme-linked immunosorbent assay (ELISA), and the ratio of tyrosine 15-phosphorylated Cdc2 to Cdc2 was calculated to obtain the 50% phosphorylation-inhibitory concentration of the test compound to the cells (EC50, nM). The cytolytic buffer used herein is an aqueous solution containing 20 mM Hepes (pH 7.5), 150 mM sodium chloride, 1 mM disodium ethylenediaminetetraacetate, 0.1% polyoxyethylene (10) octylphenyl ether, 1% protease inhibitor cocktail, 1 mM dithiothreitol, 2 mM sodium orthovanadate, 10 mM sodium fluoride and 10 mM glycerol diphosphate. Cdc2 was determined through ELISA as follows: A rabbit anti-Cdc2 antibody solution, which had been diluted 200-fold with 50 mM carbonate-bicarbonate buffer (pH 9.6), was applied to a 96-well maxisorpimmuno plate (bought from Nunc), in an amount of 50 μL/well, and statically kept overnight at 4° C. so as to fix the antibody on the plate. Next, this was washed three times with phosphate-buffered physiological saline (PBS), and 5% bovine serum albumin-containing PBS (5% BSA/PBS) was added thereto in an amount of 300 μL/well, and statically kept at room temperature for 2 hours, and then again washed three times with PBS. A mouse anti-Cdc2 antibody solution that had been diluted 100-fold with 0.05% polyoxyethylene sorbitan monolaurate and 1% BSA-containing Tris-HCl-buffered physiological saline (1% BSA/TBS-T) was added to it in an amount of 50 μL/well, and the cell solution was added thereto in an amount of 5 μL/well and statically kept overnight at 4° C. Next, this was washed three times with 0.05% polyoxyethylene sorbitan monolaurate and 0.1% BSA-containing Tris-HCl-buffered physiological saline (0.1% BSA/TBS-T), and then a horseradish peroxidase-labeled anti-mouse IgG antibody solution that had been diluted 2000-fold with 1% BSA/TBS-T was added thereto in an amount of 70 μL/well, and statically kept at room temperature for 3 hours. […]
On the technique in general: An ELISA detects its analyte on a solid surface through an enzyme-linked reagent.

T1 sequence (P30291 whole entry): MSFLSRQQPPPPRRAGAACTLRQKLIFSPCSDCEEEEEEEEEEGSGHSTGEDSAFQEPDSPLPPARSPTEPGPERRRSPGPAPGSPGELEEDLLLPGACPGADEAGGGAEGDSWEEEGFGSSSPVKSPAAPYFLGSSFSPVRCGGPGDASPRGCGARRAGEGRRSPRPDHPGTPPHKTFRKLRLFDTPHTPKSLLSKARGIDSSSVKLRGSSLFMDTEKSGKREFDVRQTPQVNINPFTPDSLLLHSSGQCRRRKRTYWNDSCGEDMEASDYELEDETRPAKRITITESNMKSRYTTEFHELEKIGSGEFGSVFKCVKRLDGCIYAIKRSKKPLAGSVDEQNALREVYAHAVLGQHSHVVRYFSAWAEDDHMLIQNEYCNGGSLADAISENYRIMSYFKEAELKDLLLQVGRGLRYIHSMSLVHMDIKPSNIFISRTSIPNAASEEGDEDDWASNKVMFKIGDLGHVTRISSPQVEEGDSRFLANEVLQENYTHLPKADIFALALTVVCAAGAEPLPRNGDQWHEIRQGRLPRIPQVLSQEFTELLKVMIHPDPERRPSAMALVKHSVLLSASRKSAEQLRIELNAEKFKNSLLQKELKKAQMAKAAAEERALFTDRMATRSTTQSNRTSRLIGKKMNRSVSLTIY

Consider `CN1CCc2cc(Nc3ncc4c(=N)n(-c5c(Cl)cccc5Cl)c(=O)[nH]c4n3)ccc2C1(C)C` [Example 4, 3-(2,6-dichlorophenyl)-4-imino-7-[(1,1,2-trimethyl-1,2,3,4-tetrahydroisoquinolin-6-yl)amino]-3,4-dihydropyrimido[4,5-d]pyrimidin-2(1H)-one], for which the IC50 against Wee1 kinase turned out to be 8.3 nM. Besides, in test [1], the EC50 stood at 28 nM.

As for `CN1CCc2cc(Nc3ncc4c(=N)n(-c5c(Cl)ccnc5Cl)c(=O)[nH]c4n3)ccc2C1(C)C` [Example 5, 3-(2,4-dichloropyridin-3-yl)-4-imino-7-{[1,1,2-trimethyl-1,2,3,4-tetrahydroisoqunolin-6-yl]amino}-3,4-dihydropyrimido[4,5-d]pyrimidin-2(1H)-one], the IC50 against Wee1 kinase was found to be 9.6 nM. For the same compound, the EC50 in test [1] was determined as 70 nM.

On to `CN(C)C1Cc2ccc(Nc3ncc4c(=N)n(-c5c(Cl)cccc5Cl)c(=O)n(C)c4n3)cc2C1` (stereo not drawn) [Example 9], for which the IC50 against Wee1 kinase came out at 6.6 nM. The EC50 in test [1] worked out at 24 nM.

As for `CN(C)C1CC(C)(C)c2ccc(Nc3ncc4c(=N)n(-c5c(Cl)cccc5Cl)c(=O)[nH]c4n3)cc21` (stereo not drawn) [Example 10], on Wee1 kinase, the IC50 is 13.1 nM. In addition, the EC50 in test [1] was found to be 61 nM.

`Cc1cccc(Cl)c1-n1c(=O)[nH]c2nc(Nc3ccc4c(c3)CN(C)CC43CC3)ncc2c1=N` [Example 14, 3-(2-chloro-6-methylphenyl)-4-imino-7-[(2′-methyl-2′,3′-dihydro-1′H-spiro[cyclopropane-1,4′-isoquinolin]-7′-yl)amino]-3,4-dihydropyrimido[4,5-d]pyrimidin-2(1H)-one] returned a half-maximal inhibitory concentration (IC50) against Wee1 kinase of 10.4 nM. Moreover, in test [1], the EC50 was 77 nM.

For `CN1CCc2ccc(Nc3ncc4c(=N)n(-c5c(F)cccc5Cl)c(=O)[nH]c4n3)cc2C1` [Example 16, 3-(2-chloro-6-fluorophenyl)-4-imino-7-{[2-methyl-1,2,3,4-tetrahydroisoquinolin-7-yl]amino}-3,4-dihydropyrimido[4,5-d]pyrimidin-2(1H)-one], on Wee1 kinase, the IC50 amounted to 6.8 nM. For the same compound, the EC50 in test [1] stood at 50 nM.

`CN1CCc2ccc(Nc3ncc4c(=N)n(-c5c(F)cc(F)cc5Cl)c(=O)[nH]c4n3)cc2C1` [Example 17, 3-(2-chloro-4,6-difluorophenyl)-4-imino-7-{[2-methyl-1,2,3,4-tetrahydroisoquinolin-7-yl]amino}-3,4-dihydropyrimido[4,5-d]pyrimidin-2(1H)-one]: the IC50 on Wee1 kinase was 9.2 nM. Besides, the EC50 in test [1] is 47 nM.

`CN1CCc2ccc(Nc3ncc4c(=N)n(-c5c(Cl)cc(F)cc5Cl)c(=O)[nH]c4n3)cc2C1` [Example 18, 3-(2,6-dichloro-4-fluorophenyl)-4-imino-7-{[2-methyl-1,2,3,4-tetrahydroisoquinolin-7-yl]amino}-3,4-dihydropyrimido[4,5-d]pyrimidin-2(1H)-one]: the IC50 against Wee1 kinase was 8.9 nM. The EC50 in test [1] is 35 nM.

In turn, `Cc1cc(Nc2ncc3c(=N)n(-c4c(Cl)cccc4Cl)c(=O)[nH]c3n2)cc2c1CCN(C)C2` [Example 21, 3-(2,6-dichlorophenyl)-7-{[2,5-dimethyl-1,2,3,4-tetrahydroisoquinolin-7-yl]amino}-4-imino-3,4-dihydropyrimido[4,5-d]pyrimidin-2(1H)-one] registered an IC50 against Wee1 kinase of 4.8 nM. Further, the EC50 in test [1] came to 11 nM.

Take `Cn1c(=O)n(-c2c(Cl)cccc2Cl)c(=N)c2cnc(Nc3ccc4c(c3)CCN(CCO)C4(C)C)nc21` [Example 22, 3-(2,6-dichlorophenyl)-7-{[2-(2-hydroxyethyl)-1,1-dimethyl-1,2,3,4-tetrahydroisoquinolin-6-yl]amino}-4-imino-1-methyl-3,4-dihydropyrimido[4,5-d]pyrimidin-2(1H)-one]: half-maximal inhibition at Wee1 kinase (IC50) was put at 5.2 nM. Besides, the EC50 in test [1] is 16 nM.

As to `CCN1CCc2cc(Nc3ncc4c(=N)n(-c5c(Cl)cccc5Cl)c(=O)[nH]c4n3)ccc2C1` [Example 30, 3-(2,6-dichlorophenyl)-4-imino-7-{[2-ethyl-1,2,3,4-tetrahydroisoquinolin-6-yl]amino}-3,4-dihydropyrimido[4,5-d]pyrimidin-2(1H)-one], on Wee1 kinase, the IC50 came to 7.1 nM. The EC50 in test [1] came out at 25 nM.

Compound `CN(C)C1Cc2ccc(Nc3ncc4c(=N)n(-c5c(Cl)cccc5Cl)c(=O)[nH]c4n3)cc2C1` (stereo not drawn) [Example 39] returned an IC50 at Wee1 kinase of 6.5 nM. Moreover, the EC50 in test [1] is 37 nM.

`CN(C)C1CCc2ccc(Nc3ncc4c(=N)n(-c5c(Cl)cccc5Cl)c(=O)[nH]c4n3)cc2C1` (stereo not drawn) [Example 43]: the midpoint of inhibition against Wee1 kinase, the IC50, lay at 5.1 nM. In addition, the EC50 in test [1] was 45 nM.

Consider `CN1CCc2ccc(Nc3ncc4c(=N)n(-c5c(Cl)cccc5Cl)c(=O)[nH]c4n3)cc2CC1` [Example 48, 3-(2,6-dichlorophenyl)-4-imino-7-[(3-methyl-2,3,4,5-tetrahydro-1H-3-benzazepin-7-yl)amino]-3,4-dihydropyrimido[4,5-d]pyrimidin-2(1H)-one], for which, on Wee1 kinase, the concentration for half-maximal inhibition (IC50) is 8.6 nM. Further, in test [1], the EC50 turned out to be 54 nM.

Regarding `CN(C)CC1CCc2cc(Nc3ncc4c(=N)n(-c5c(Cl)cccc5Cl)c(=O)[nH]c4n3)ccc2C1` (stereo not drawn) [Example 53], on Wee1 kinase, the IC50 amounted to 6.5 nM. In addition, in test [1], the EC50 was determined as 59 nM.

The compound `CC(=O)N1CCc2cc(Nc3ncc4c(=N)n(-c5c(Cl)cccc5Cl)c(=O)[nH]c4n3)ccc2C1(C)C` [Example 79, 7-[(2-acetyl-1,1-dimethyl-1,2,3,4-tetrahydroisoquinolin-6-yl)amino]-3-(2,6-dichlorophenyl)-4-imino-3,4-dihydropyrimido[4,5-d]pyrimidin-2(1H)-one] displayed an IC50 on Wee1 kinase of 6.3 nM.

Regarding `CN1Cc2cc(Nc3ncc4c(=O)n(-c5c(Cl)cccc5Cl)c(=O)[nH]c4n3)ccc2C2(CC2)C1` [Example 82, 3-(2,6-dichlorophenyl)-7-[(2′-methyl-2′,3′-dihydro-1′H-spiro[cyclopropane-1,4′-isoquinolin]-7′-yl)amino]pyrimido[4,5-d]pyrimidin-2,4(1H,3H)-dione], the IC50 on Wee1 kinase stood at 3.3 nM. The EC50 in test [1] is 30 nM.

(Values after patent US8436004B2, “Bicycloaniline derivative” (MSD K.K., priority 2007, dated 2013).)
